Measurements as given in article PMC7451656, “In vitro and in vivo growth inhibitory activities of cryptolepine hydrate against several Babesia species and Theileria equi” (PLoS Neglected Tropical Diseases, 2020).

Tests used:
[1] = tested on: B. caballi; experiment: Growth inhibitory fluorescence assay in vitro, B. caballi; assay type: cell-based, Babesia caballi
Method: (§1) Texas strain of B. bovis and Argentina strain of B. bigemina were grown using bovine red blood cells (RBCs, collected from cattle farm of Obihiro University of Agriculture and Veterinary Medicine and stored at 4°C) in medium 199 (M199; Sigma-Aldrich, Tokyo, Japan) supplemented with 40% bovine serum, while RPMI 1640 medium (Sigma-Aldrich, Tokyo, Japan) was used for B. divergens (German strain) cultivation. The United States Department of Agriculture (USDA) strain of T. equi was grown in equine RBCs (collected from horse farm of Obihiro University of Agriculture and Veterinary Medicine and stored at 4°C) in M199 supplemented with 40% equine serum, and hypoxanthine (MP Biomedicals, Santa Ana, CA, USA) at a final concentration of 13.6 μg/ml was used as a vital supplement, while GIT medium was used for B. caballi (USDA strain) cultivation. Sixty μg/ml of streptomycin, 0.15 μg/ml of amphotericin B, and 60 U/ml of penicillin G (Sigma-Aldrich, Tokyo, Japan) were added to all media to prevent fungal and bacterial contamination. All parasite cultures were maintained for a long time in a microaerophilic stationary-phase culture system.
(§2) The inhibition assay was conducted according to the previously described protocol. Briefly, different concentrations of CRY, DA, CF, and AQ were added in triplicate in 96-well plates with 1% parasitemia and 2.5% HCT for B. bovis and B. bigemina and 5% HCT for B. divergens, B. caballi, and T. equi. The plates were incubated in a humidified incubator with 5% CO2, 5% O2, and 90% N2 for 96 h without changing the media. After 96 h, 100 μl of lysis buffer containing 2 × SG1 was directly added to each well and the plates were then wrapped in aluminum foil for protection from direct light and incubated for 6 h at room temperature. Afterward, the fluorescence was measured using a fluorescence spectrophotometer (Fluoroskan Ascent, Thermo Fisher Scientific, USA) at 485 nm excitation and 518 nm emission wavelengths. The relative fluorescence value was set to percentages after subtracting the mean values of the negative control. The experiment was repeated thrice.
(§3) The IC50 values of CRY, DA, CF, and AQ were determined using the nonlinear regression curve fit in GraphPad Prism (GraphPad Software Inc., San Diego, CA, USA). Combination index (CI) values for the drug combination were calculated using CompuSyn software, and the degree of synergism was determined as the weighted average of CI values using a formula [(1 x IC50) + (2 x IC75) + (3 x IC90) + (4 x IC95)]/10 [30]. The differences in parasitemia and hematology profiles in the B. microti–infected mice were analyzed using an independent Student’s t-test and one-way ANOVA test using GraphPad Prism version 5.0 for Windows (GraphPad Software Inc., San Diego, CA, USA). A P-value < 0.05 was considered statistically significant.

[2] = tested on: B. bigemina; experiment: Growth inhibitory fluorescence assay in vitro, B. bigemina; assay type: cell-based, Babesia bigemina
Method: as §1, §2, §3

[3] = tested on: B. divergens; experiment: Growth inhibitory fluorescence assay in vitro, B. divergens; assay type: cell-based, Babesia divergens
Method: as §1, §2, §3

[4] = tested on: T. equi; experiment: Growth inhibitory fluorescence assay in vitro, T. equi; assay type: cell-based, Theileria equi
Method: as §1, §2, §3

[5] = tested on: mouse embryonic fibroblast (NIH/3T3) cell line; experiment: cells; assay type: cell-based; settings: for EC50: cell viability, NIH/3T3, 24 h, CCK-8
Method: (§4) Madin–Darby bovine kidney (MDBK) (ECACC), mouse embryonic fibroblast (NIH/3T3 ATCC CRL-1658) and Human foreskin fibroblast (HFF HFF-1 ATCC SCRC-1041) cell lines were recovered from -80°C stock and cultured continuously in our laboratory at 37°C in a humidified incubator with 5% CO2. In 75 cm^2 culture flasks, NIH/3T3 and HFF cell lines were maintained with Dulbecco’s Modified Eagle’s Medium (DMEM; Gibco, Grand Island, NY, USA), while the MDBK cell line was maintained with Minimum Essential Medium Eagle (MEM; Gibco). Ten percent fetal bovine serum, 1% glutamine, and 0.5% penicillin/streptomycin (Gibco) were added to all media and the cells were stained with 4, 6-diamidino-2-phenylindole dihydrochloride (DAPI; Sigma-Aldrich, St. Louis, MO, USA) to ensure that they were free from mycoplasma contamination. Afterward, the cells were washing twice with Dulbecco’s phosphate-buffered saline and TrypLE Express (Gibco) was used for cell detachment from the culture flask. Finally, Neubauer improved C-Chip (NanoEntek Inc., Seoul, Korea) was used for counting the viable cells after staining with 0.4% trypan blue solution.
(§5) The cytotoxicity assay was performed in accordance with the previously described protocol. Briefly, the assay was carried out using 96-well plates at 37 °C in a humidified incubator with 5% CO2, 100 μl of cells at a density of 5 x 10^4 cells/ml was seeded per well and allowed to attach to the plate for 24 h. Ten microliters of twofold drug dilutions was added to each well to a final concentration of 0.781 to 100 μM in triplicate and incubated for another 24 h. Ten μl of Cell Counting Kits-8 (CCK-8; Dojindo, Japan) was added to each well and incubated for another 3 h, and the absorbance was measured at 450 nm using a microplate reader.

[6] = tested on: Madin–Darby bovine kidney (MDBK) cell line; experiment: cells; assay type: cell-based; settings: for EC50: MDBK, 24 h, cell viability, CCK-8
Method: as §4, §5

[7] = tested on: human foreskin fibroblast (HFF) cell line; experiment: cells; assay type: cell-based; settings: for EC50: cell viability, HFF, 24 h, CCK-8
Method: as §4, §5

[8] = tested on: B. bovis; experiment: Growth inhibitory fluorescence assay in vitro, B. bovis; assay type: cell-based, Babesia bovis
Method: as §1, §2, §3

[9] = tested on: B. microti small-subunit rRNA (ss-rRNA) gene; experiment: Nested PCR detection of B. microti DNA in blood of treated mice; assay type: in vivo, Babesia microti; settings: day 49, 25 mg/kg DA
Method: (§6) The promising effect of CRY in vitro encouraged us to evaluate its in vivo effects against B. microti in mice. The assay was conducted in accordance with the previously described protocol. In two separate trials, 35 female 8-week-old BALB/c mice, housed under a pathogen-free environment with controlled humidity, temperature (22°C) and a 12 h light/ dark cycle were caged in seven groups, each group consisting of five mice. Six groups were i.p. injected with 0.5 ml of inoculum (1×10^7 B. microti iRBCs), while the seventh group was left uninfected and untreated to act as a negative control. When the average parasitemia in all infected mice reached approximately 1%, the 5-day drug treatment was initiated. The first and second groups were i.p. injected with 25 mg/kg body weight (BW) of DA and 5 mg/kg BW of CRY, respectively. The third group received 20 mg/kg BW of AQ orally, while the fourth and fifth groups were administered a combination of 2.5 mg/kg BW CRY + 12.5 mg/kg BW DA and 2.5 mg/kg BW CRY + 10 mg/kg AQ via a route similar to that of the single-drug treatment, respectively. The sixth group received 5% DMSO in physiological saline i.p. as a positive control. Parasitemia and hematology profiles (RBCs, hemoglobin (HGB), and HCT) were monitored every 2 and 4 days by microscopic examination and hematology analyzer (Celltac α MEK-6450, Nihon Kohden Corporation, Tokyo, Japan), respectively. On day 49, all mice were euthanized using an anesthesia system containing isoflurane and the blood was collected by cardiac puncture for PCR detection of the parasites.
The nested PCR (nPCR) that targeted the B. microti small-subunit rRNA (ss-rRNA) gene was performed in accordance with the previously described protocol and the genomic DNA was extracted from blood samples collected from all mice groups on day 49 post-infection (p.i.) using a QIAamp DNA Blood Mini Kit (Qiagen, Tokyo, Japan). PCR cycling conditions were performed as previously described and the bands with an expected size of 154 bp were considered positive.

[10] = tested on: B. microti; experiment: Chemotherapeutic effect against B. microti in mice (parasitemia); assay type: in vivo, Babesia microti; settings: BALB/c mice, 25 mg/kg DA i.p.
Method: Rodent B. microti (Munich strain) was recovered from -80°C stock and injected intraperitoneally (i.p.) in two 8-week-old female BALB/c mice purchased from CLEA Japan (Clea Japan, Tokyo, Japan). The mice were euthanized using an anesthesia system containing isoflurane after parasitemia reached approximately 30% and the blood was collected by cardiac puncture to conduct the in vivo studies.
as §6

With CC(C)/N=c1\cc2n(-c3ccc(Cl)cc3)c3ccccc3nc-2cc1Nc1ccc(Cl)cc1 [CF, clofazimine] the “Selective index HFF” value ([1]; EC50 HFF / IC50 B. caballi) was “˃ 12.6”, the “Selective index MDBK” value ([1]; EC50 MDBK / IC50 B. caballi) was 4.4 and the “Selective index NIH/3T3” value ([1]; EC50 NIH/3T3 / IC50 B. caballi) was “˃ 12.6”. The “Selective index HFF” value ([2]; EC50 HFF / IC50 B. bigemina) was “˃ 17.5”, the “Selective index MDBK” value ([2]; EC50 MDBK / IC50 B. bigemina) was 6.1 and the “Selective index NIH/3T3” value ([2]; EC50 NIH/3T3 / IC50 B. bigemina) was “˃ 17.5”. The “Selective index HFF” value ([3]; EC50 HFF / IC50 B. divergens) was “˃ 7.2”, the “Selective index MDBK” value ([3]; EC50 MDBK / IC50 B. divergens) was 2.5 and the “Selective index NIH/3T3” value ([3]; EC50 NIH/3T3 / IC50 B. divergens) was “˃ 7.2”. The “Selective index HFF” value ([4]; EC50 HFF / IC50 T. equi) was “˃ 34.7”, the “Selective index MDBK” value ([4]; EC50 MDBK / IC50 T. equi) was 12.1 and the “Selective index NIH/3T3” value ([4]; EC50 NIH/3T3 / IC50 T. equi) was “˃ 34.7”. The EC50 ([5]; Mus musculus, NIH3T3) was over 100 µM, the EC50 ([6]; Bos taurus) was 34 ± 3.4 µM and the EC50 [6] was 34.7 ± 3.4 µM. The EC50 ([7]; Homo sapiens) was over 100 µM, the “Selective index HFF” value ([8]; EC50 HFF / IC50 B. bovis) was “˃ 12.1” and the “Selective index MDBK” value ([8]; EC50 MDBK / IC50 B. bovis) was 4.2. The “Selective index NIH/3T3” value ([8]; EC50 NIH/3T3 / IC50 B. bovis) was “˃ 12.1”.

CC(=O)NCC(=O)O.CC(=O)NCC(=O)O.N=C(N)c1ccc(N=NNc2ccc(C(=N)N)cc2)cc1 [DA, diminazene aceturate] showed an IC50 ([1]; B. caballi in vitro culture, fluorescence assay, 96 h) of 22 ± 0.0002 nM, an IC50 ([2]; B. bigemina in vitro culture, fluorescence assay, 96 h) of 680 ± 0.09 nM and an IC50 ([3]; B. divergens in vitro culture, fluorescence assay, 96 h, read-out: IC50) of 430 ± 0.05 nM. For the same compound, the IC50 ([4]; T. equi in vitro culture, fluorescence assay, 96 h) was 710 ± 0.05 nM, the “inhibition of cell line at 100 μM” value [5] was “did not show any inhibition” and the EC50 [5] was over 100 µM. The “inhibition of cell line at 100 μM” value [6] was “did not show any inhibition”, the EC50 [6] was over 100 µM and the “inhibition of cell line at 100 μM” value [7] was “did not show any inhibition”. The EC50 [7] was over 100 µM, the “parasite DNA in blood (nPCR)” value [9] was “not detected” and the “day p.i. on which parasitemia was undetectable by microscopy” value [10] was 16 days. It also gave a peak parasitemia level ([10]; 5 days, day 10) of 8.5% and an IC50 ([8]; B. bovis in vitro culture, fluorescence assay, 96 h) of 350 ± 0.06 nM.
